Assay results taken from the supplement of paper PMC8967900.

Key:
Assay in all cases: selective drug sensitivity score (sDSS, relative to normal bone marrow) (sDSS (score)); higher = more potent and effective on the cell line relative to normal bone marrow cells
Conditions in all cases: 72 h
[1] = tested on: TANOUE
[2] = tested on: SEM cells
[3] = tested on: KARPAS-45
[4] = tested on: COG-LL-317
[5] = tested on: SUP-B15
[6] = tested on: PEER
[7] = tested on: 697
[8] = tested on: JURKAT
[9] = tested on: NALM-6
[10] = tested on: MOLT-16
[11] = tested on: KASUMI-2
[12] = tested on: ALL-PO
[13] = tested on: COG-LL-332h
[14] = tested on: ALL-SIL
[15] = tested on: RCH-ACV
[16] = tested on: MHH-CALL-4
[17] = tested on: COG-LL-394h
[18] = tested on: CCRF-HSB2
[19] = tested on: MHH-CALL-2
[20] = tested on: HAL-01
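Note: ALL cell lines in 384-well plates, five doses spanning 10,000-fold, each plate scaled between vehicle and 100 µmol/L benzalkonium chloride controls, sDSS an adapted area-under-curve metric.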

Structure (SMILES) | selective drug sensitivity score [1] | selective drug sensitivity score [2] | selective drug sensitivity score [3] | selective drug sensitivity score [4] | selective drug sensitivity score [5] | selective drug sensitivity score [6] | selective drug sensitivity score [7] | selective drug sensitivity score [8] | selective drug sensitivity score [9] | selective drug sensitivity score [10] | selective drug sensitivity score [11] | selective drug sensitivity score [12] | selective drug sensitivity score [13] | selective drug sensitivity score [14] | selective drug sensitivity score [15] | selective drug sensitivity score [16] | selective drug sensitivity score [17] | selective drug sensitivity score [18] | selective drug sensitivity score [19] | selective drug sensitivity score [20]
C[C@H](Nc1ncnc2[nH]cnc12)c1cc2ccc(F)cc2nc1-c1ccccn1 [AMG319] (top concentration 1000 nM) | -0.12 | -1.42 | -0.22 | -1.42 | 0.48 | -1.42 | 0.18 | -1.42 | 3.68 | -1.42 | 7.58 | -1.42 | -1.42 | -1.42 | 19.3 | 0.68 | -1.42 | -1.32 | -1.42 | 10.4
Cc1cn(-c2cc(NC(=O)c3ccc(C)c(Nc4nccc(-c5cccnc5)n4)c3)cc(C(F)(F)F)c2)cn1 [Nilotinib] (top concentration 10000 nM) | 0 | 4.9 | 4.2 | 0 | 31.6 | 18.1 | 1.3 | 1.1 | 0 | 2.1 | 4.1 | 4.6 | 16.4 | 43.3 | 8.3 | 2 | 0.7 | 12.9 | 8.9 | 3.3
O=C(NOC[C@H](O)CO)c1ccc(F)c(F)c1Nc1ccc(I)cc1F (top concentration 1000 nM) | -2.46 | -3.16 | -3.76 | -1.66 | 13.5 | 0.94 | 0.14 | -3.96 | 7.54 | -1.36 | 10.1 | 4.34 | -2.26 | 3.54 | -1.96 | 6.24 | -0.26 | 0.44 | -0.36 | 6.34
COc1ccc2[nH]cc(/C=C3\C(=O)Nc4ccc(NC(=O)CCN5CCCCC5)cc43)c2c1 (top concentration 50000 nM) | -2.22 | 2.18 | 7.98 | 2.58 | 2.48 | 2.18 | -0.02 | -3.22 | -2.12 | -2.32 | -4.72 | 5.18 | 4.68 | 1.58 | 1.08 | -1.82 | 0.18 | 6.68 | -2.82 | -3.42
CO[C@H]1C(=O)[C@]2(C)[C@@H](OC)C[C@H]3OC[C@@]3(OC(C)=O)[C@H]2[C@H](OC(=O)c2ccccc2)[C@]2(O)C[C@H](OC(=O)[C@H](O)[C@@H](NC(=O)OC(C)(C)C)c3ccccc3)C(C)=C1C2(C)C [Cabazitaxel] (top concentration 1000 nM) | -11.5 | 19.5 | 18.9 | 26.2 | 21.9 | 23 | 23.7 | 18.3 | 15.9 | 26.7 | 17.5 | 15.1 | 22.1 | 19.3 | 22.9 | 3.58 | 6.08 | 21.1 | 15.9 | 11.7
COc1c(OCCCN2CCOCC2)ccc2c1N=C(NC(=O)c1cnc(N)nc1)N1CCN=C21 [Copanlisib] (top concentration 1000 nM) | -6.52 | 4.18 | 3.38 | 6.08 | -2.12 | -5.82 | 3.48 | -3.62 | 8.18 | 7.68 | 4.18 | 8.28 | 2.78 | 0.38 | 22.2 | 9.28 | -0.82 | 1.98 | 6.18 | 12.1
C=CCn1c(=O)c2cnc(Nc3ccc(N4CCN(C)CC4)cc3)nc2n1-c1cccc(C(C)(C)O)n1 [AZD1775] (top concentration 10000 nM) | -1.66 | 14.1 | 14.9 | 20.5 | 14.7 | 12.2 | 15.4 | 11.3 | 11 | 17.5 | 4.94 | 7.04 | 11 | 10 | 17.2 | 1.94 | 5.54 | 13.6 | 10.5 | 8.34
Nc1nc(NC2CC2)cc(-c2cccc(Cl)c2Cl)n1 [TH588] (top concentration 25000 nM) | -0.58 | 8.62 | 8.12 | 7.72 | 7.62 | 12 | 8.72 | 15.2 | -0.58 | 16.3 | -0.58 | 10.5 | 6.82 | 14.7 | 3.52 | -0.58 | -0.58 | 8.42 | -0.58 | -0.58
